For six compounds, mutagenic call results are on record in PubChem BioAssay AID1259407 (Chemical Carcinogenesis Research Information System (CCRIS), 2018).

The series concerns CCRIS mutagenicity, Ames/micronucleus/aberration tests. The series can be described thus: CCRIS mutagenicity studies.
[1] abbreviates: Test System: AMES SALMONELLA TYPHIMURIUM, Strain/Indicator: TA97, Metabolic Activation: NONE, Method: PREINCUBATION
Where [2] appears, read: Test System: AMES SALMONELLA TYPHIMURIUM, Strain/Indicator: TA98, Metabolic Activation: NONE, Method: PREINCUBATION
Where [3] appears, read: Test System: AMES SALMONELLA TYPHIMURIUM, Strain/Indicator: TA100, Metabolic Activation: NONE, Method: PREINCUBATION
Setting [4] is: Test System: AMES SALMONELLA TYPHIMURIUM, Strain/Indicator: TA1535, Metabolic Activation: NONE, Method: PREINCUBATION
Setting [5] is: Test System: AMES SALMONELLA TYPHIMURIUM, Strain/Indicator: TA104, Metabolic Activation: NONE, Method: PREINCUBATION

The structures appear in SMILES notation. Calls of active or inactive are those of the source. No rule for the calls is given here.

In the case of `Nc1cc(Cl)c([N+](=O)[O-])cc1O`, the mutagenic call runs as follows: (Test System: AMES SALMONELLA TYPHIMURIUM, Strain/Indicator: TA97, Metabolic Activation: HAMSTER, LIVER, S-9, AROCLOR 1254 (10%), Method: PREINCUBATION) “active; positive”; under setting [1], “active; positive”; (Test System: AMES SALMONELLA TYPHIMURIUM, Strain/Indicator: TA97, Metabolic Activation: RAT, LIVER, S-9, AROCLOR 1254 (10%), Method: PREINCUBATION) “active; positive”; (Test System: AMES SALMONELLA TYPHIMURIUM, Strain/Indicator: TA98, Metabolic Activation: HAMSTER, LIVER, S-9, AROCLOR 1254 (10%), Method: PREINCUBATION) “active; positive”; under setting [2], “active; positive”; (Test System: AMES SALMONELLA TYPHIMURIUM, Strain/Indicator: TA98, Metabolic Activation: RAT, LIVER, S-9, AROCLOR 1254 (10%), Method: PREINCUBATION) “active; positive”. The mutagenic call is “active; positive” (Test System: AMES SALMONELLA TYPHIMURIUM, Strain/Indicator: TA100, Metabolic Activation: HAMSTER, LIVER, S-9, AROCLOR 1254 (10%), Method: PREINCUBATION); “inactive; negative” under setting [3]; “inactive; negative” (Test System: AMES SALMONELLA TYPHIMURIUM, Strain/Indicator: TA100, Metabolic Activation: RAT, LIVER, S-9, AROCLOR 1254 (10%), Method: PREINCUBATION); “inactive; negative” (Test System: AMES SALMONELLA TYPHIMURIUM, Strain/Indicator: TA1535, Metabolic Activation: HAMSTER, LIVER, S-9, AROCLOR 1254 (10%), Method: PREINCUBATION); “inactive; negative” under setting [4]; “inactive; negative” (Test System: AMES SALMONELLA TYPHIMURIUM, Strain/Indicator: TA1535, Metabolic Activation: RAT, LIVER, S-9, AROCLOR 1254 (10%), Method: PREINCUBATION).

As for `O[C@H]1[C@H]2O[C@H]2c2c(ccc3ccccc23)[C@@H]1O`, the mutagenic call is “active; positive” under setting [1]; “active; positive” under setting [2]; “active; positive” under setting [3]; “active; positive” (Test System: AMES SALMONELLA TYPHIMURIUM, Strain/Indicator: TA100, Metabolic Activation: NONE, Method: STANDARD PLATE); “active; positive” under setting [5]; “active; positive” (Test System: CHINESE HAMSTER V-79, Strain/Indicator: V-79/6-THIOGUANINE, Metabolic Activation: NONE).

As to `Cc1nc(N)cc2[nH]c3ccccc3c12`, the mutagenic call reads like this: (Test System: AMES SALMONELLA TYPHIMURIUM, Strain/Indicator: TA98, Metabolic Activation: HUMAN, BLOOD, CYTOSOL, Method: PREINCUBATION) “active; positive”; (Test System: AMES SALMONELLA TYPHIMURIUM, Strain/Indicator: TA98, Metabolic Activation: MOUSE, LIVER, HEPATOCYTES) “active; positive”; (Test System: AMES SALMONELLA TYPHIMURIUM, Strain/Indicator: TA98, Metabolic Activation: MOUSE, LIVER, HEPATOCYTES, 2,3,7,8-TETRACHLORODIBENZO-P-DIOXIN) “active; positive”; (Test System: AMES SALMONELLA TYPHIMURIUM, Strain/Indicator: TA98, Metabolic Activation: MOUSE, LIVER, MICROSOMES) “active; positive”; (Test System: AMES SALMONELLA TYPHIMURIUM, Strain/Indicator: TA98, Metabolic Activation: MOUSE, LIVER, MICROSOMES, 2,3,7,8-TETRACHLORODIBENZO-P-DIOXIN) “active; positive”; (Test System: AMES SALMONELLA TYPHIMURIUM, Strain/Indicator: TA98, Metabolic Activation: MOUSE, LIVER, MICROSOMES, TCDD, Method: STANDARD PLATE) “active; positive”. Also, the mutagenic call reads like this: (Test System: AMES SALMONELLA TYPHIMURIUM, Strain/Indicator: TA98, Metabolic Activation: MOUSE, LIVER, MICROSOMES, Method: STANDARD PLATE) “active; positive”; (Test System: AMES SALMONELLA TYPHIMURIUM, Strain/Indicator: TA98, Metabolic Activation: RAT, BLADDER, S-9, PCB, Method: FLUCTUATION TEST) “active; positive”; (Test System: AMES SALMONELLA TYPHIMURIUM, Strain/Indicator: TA98, Metabolic Activation: RAT, HEPATOCYTES, AROCLOR 1254, Method: PREINCUBATION) “active; positive”; (Test System: AMES SALMONELLA TYPHIMURIUM, Strain/Indicator: TA98, Metabolic Activation: RAT, LIVER, S-9, AROCLOR 1254, Method: PREINCUBATION) “active; positive”; (Test System: AMES SALMONELLA TYPHIMURIUM, Strain/Indicator: TA100, Metabolic Activation: RAT, BLADDER, S-9, PCB, Method: FLUCTUATION TEST) “active; positive”; (Test System: AMES SALMONELLA TYPHIMURIUM, Strain/Indicator: TA100, Metabolic Activation: RAT, LIVER, S-9, AROCLOR 1254, Method: PREINCUBATION) “inactive; negative”. Further, the mutagenic call runs as follows: (Test System: AMES SALMONELLA TYPHIMURIUM, Strain/Indicator: YG1019, Metabolic Activation: RAT LIVER S-9, AROCLOR, Method: PREINCUBATION) “active; positive”; (Test System: UDS HAMSTER HEPATOCYTES, Strain/Indicator: THY INCORP, Metabolic Activation: NONE, Method: LIQUID SCINTILLATION COUNTING) “inactive; negative”; (Test System: UDS RAT HEPATOCYTES, Strain/Indicator: THY INCORP, Metabolic Activation: NONE, Method: LIQUID SCINTILLATION COUNTING) “inactive; negative”.

Turning to `N[C@@H](CS/C=C/CCl)C(=O)O`, the mutagenic call is, setting by setting: under setting [2], “inactive; negative”; under setting [3], “inactive; negative”; (Test System: AMES SALMONELLA TYPHIMURIUM, Strain/Indicator: TA2638, Metabolic Activation: NONE, Method: PREINCUBATION) “inactive; negative”.

Regarding `N=NCO`, the mutagenic call (Test System: AMES SALMONELLA TYPHIMURIUM, Strain/Indicator: TA1535, Metabolic Activation: NONE, Method: STANDARD PLATE) was “active; positive”; the mutagenic call (Test System: E. COLI, Strain/Indicator: WP2, Metabolic Activation: NONE, Method: STANDARD PLATE) is “active; positive”; the mutagenic call (Test System: E. COLI, Strain/Indicator: WP2 UVRA, Metabolic Activation: NONE, Method: STANDARD PLATE) is “active; positive”.

Take `O=S(O)CO`: the mutagenic call is “inactive; negative” under setting [2]; “inactive; negative” (Test System: AMES SALMONELLA TYPHIMURIUM, Strain/Indicator: TA98, Metabolic Activation: RAT LIVER S-9, PHENOBARBITAL AND BETA-NAPHTHOFLAVONE, Method: PREINCUBATION); “inactive; negative” under setting [3]; “inactive; negative” (Test System: AMES SALMONELLA TYPHIMURIUM, Strain/Indicator: TA100, Metabolic Activation: RAT LIVER S-9, PHENOBARBITAL AND BETA-NAPHTHOFLAVONE, Method: PREINCUBATION); “inactive; negative” (Test System: AMES SALMONELLA TYPHIMURIUM, Strain/Indicator: TA102, Metabolic Activation: NONE, Method: PREINCUBATION); “inactive; negative” (Test System: AMES SALMONELLA TYPHIMURIUM, Strain/Indicator: TA102, Metabolic Activation: RAT LIVER S-9, PHENOBARBITAL AND BETA-NAPHTHOFLAVONE, Method: PREINCUBATION). Besides, the mutagenic call under setting [5] is “inactive; negative”; the mutagenic call (Test System: AMES SALMONELLA TYPHIMURIUM, Strain/Indicator: TA104, Metabolic Activation: RAT LIVER S-9, PHENOBARBITAL AND BETA-NAPHTHOFLAVONE, Method: PREINCUBATION) is “inactive; negative”; the mutagenic call under setting [4] was “inactive; negative”; the mutagenic call (Test System: AMES SALMONELLA TYPHIMURIUM, Strain/Indicator: TA1535, Metabolic Activation: RAT LIVER S-9, PHENOBARBITAL AND BETA-NAPHTHOFLAVONE, Method: PREINCUBATION) was “inactive; negative”; the mutagenic call (Test System: AMES SALMONELLA TYPHIMURIUM, Strain/Indicator: TA1537, Metabolic Activation: NONE, Method: PREINCUBATION) was “inactive; negative”; the mutagenic call (Test System: AMES SALMONELLA TYPHIMURIUM, Strain/Indicator: TA1537, Metabolic Activation: RAT LIVER S-9, PHENOBARBITAL AND BETA-NAPHTHOFLAVONE, Method: PREINCUBATION) was “inactive; negative”. Besides, the mutagenic call runs as follows: (Test System: E.COLI, Strain/Indicator: WP2UVRA/PKM101, Metabolic Activation: NONE, Method: PREINCUBATION) “inactive; negative”; (Test System: E.COLI, Strain/Indicator: WP2UVRA/PKM101, Metabolic Activation: RAT LIVER S-9, PHENOBARBITAL AND BETA-NAPHTHOFLAVONE, Method: PREINCUBATION) “inactive; negative”; (Test System: E.COLI, Strain/Indicator: WP2UVRA, Metabolic Activation: NONE, Method: PREINCUBATION) “inactive; negative”; (Test System: E.COLI, Strain/Indicator: WP2UVRA, Metabolic Activation: RAT LIVER S-9, PHENOBARBITAL AND BETA-NAPHTHOFLAVONE, Method: PREINCUBATION) “inactive; negative”.
